Measured values: US20210010031A1, “LENTIVIRAL VECTORS FOR HIGH-TITER TRANSDUCTION OF PRIMARY HUMAN CELLS” (priority 2018, published 2021)

Columns and labels:
HA-tagged FAM208A = HA-tagged FAM208A (Homo sapiens, UniProt Q9UK61); assay: Co-immunoprecipitation of HA-FAM208A with FLAG-Vpx in HEK293 cells; assay type: binding; settings: versus untreated cells with wild-type SIVMAC251 Vpx (FIG. 17H)
Text: Degradation of SAMHD1 requires direct interaction with Vpx or Vpr. To determine if Vpx similarly associates with proteins of the HUSH complex, HA-tagged FAM208A was co-transfected into HEK293 cells with FLAG-tagged SIVMAC251 Vpx or SIVRCM02CM8081 Vpx. When anti-FLAG antibody was used to immunoprecipitate either of the two Vpx proteins from the soluble cell lysate, HA-FAM208A was detected in the immunoprecipitate (FIG. 17H). The strength of the FAM208A signal in the Vpx pull-out increased when the co-transfected HEK293 cells were incubated with the proteasome inhibitor PR171, or when wild-type SIVMAC251 Vpx was replaced in the transfection by a mutant (Q76A) that is incapable of binding DCAF1 (FIG. 17H and FIGS. 21D and 21E).
Cells were washed in PBS, counted, normalized for cell number, and lysed directly in 1×SDS-PAGE sample buffer. Samples were run on NuPage 4-12% Bis-Tris gels followed by blotting onto nitrocellulose membranes. Primary antibodies used: FAM208A (Atlas, HPA00875), MPHOSPH8 (Proteintech, 16796-1-AP), PPHLN1 (Sigma, HPA038902), SETDB1 (Proteintech 11231-1-AP), DCAF1 (Proteintech, 11612-1-AP), FLAG (Novus, NB600-345), FLAG (Sigma, F1804, used for IP), and HA (Biolegend, 901501).

Jurkat LTR-gfp cells = assay: HIV-1 LTR-gfp provirus pool in Jurkat T cells; assay type: cell-based, human; settings: four weeks after transduction with LTR-GFP (FIG. 22B)
Text: J-Lat A1 was selected to have a silent HIV-1 LTR-driven provirus with the ability to reactivate in response to TNFα^31. The unique provirus within a clone such as J-Lat A1 may be sensitive to position-dependent silencing effects and therefore may not accurately reflect the sensitivity of a population of HIV-1 proviruses to transcriptional activation by Vpx or to silencing by FAM208A. To address the effect of Vpx and FAM208A on a population of proviruses with diverse integration sites, Jurkat T cells were transduced with an HIV-1 LTR driven reporter vector (LTR-gfp) that retains complete LTRs, tat, and rev, but has a frameshift mutation in env, an ngfr reporter gene in place of nef, and gfp in place of gag, pol, vif, and vpr (FIG. 18D). Four weeks after transduction with LTR-GFP, the presence of latent proviruses within the pool of Jurkat cells was confirmed by reactivation with either TNFα or TCR-stimulation (FIG. 22B). […] Compared with control cells, vpx or FAM208A knockdown increased the percentage of GFP cells, whether cells were treated with TNFα or not (FIGS. 18E and 18F). […] Additionally, expression vectors for SIVMND25440 Vpx, SIVRCM02CM8081 Vpx, SIVMND1GB1 Vpr, or […]1 Vpr all increased GFP expression in Jurkat LTR-gfp cells (FIG. 22C). […]
Cells were fixed in BD Cytofix Buffer prior to data acquisition on a BD C6 Accuri. Data was analyzed in FlowJo.

Sequence of HA-tagged FAM208A (Q9UK61 whole entry): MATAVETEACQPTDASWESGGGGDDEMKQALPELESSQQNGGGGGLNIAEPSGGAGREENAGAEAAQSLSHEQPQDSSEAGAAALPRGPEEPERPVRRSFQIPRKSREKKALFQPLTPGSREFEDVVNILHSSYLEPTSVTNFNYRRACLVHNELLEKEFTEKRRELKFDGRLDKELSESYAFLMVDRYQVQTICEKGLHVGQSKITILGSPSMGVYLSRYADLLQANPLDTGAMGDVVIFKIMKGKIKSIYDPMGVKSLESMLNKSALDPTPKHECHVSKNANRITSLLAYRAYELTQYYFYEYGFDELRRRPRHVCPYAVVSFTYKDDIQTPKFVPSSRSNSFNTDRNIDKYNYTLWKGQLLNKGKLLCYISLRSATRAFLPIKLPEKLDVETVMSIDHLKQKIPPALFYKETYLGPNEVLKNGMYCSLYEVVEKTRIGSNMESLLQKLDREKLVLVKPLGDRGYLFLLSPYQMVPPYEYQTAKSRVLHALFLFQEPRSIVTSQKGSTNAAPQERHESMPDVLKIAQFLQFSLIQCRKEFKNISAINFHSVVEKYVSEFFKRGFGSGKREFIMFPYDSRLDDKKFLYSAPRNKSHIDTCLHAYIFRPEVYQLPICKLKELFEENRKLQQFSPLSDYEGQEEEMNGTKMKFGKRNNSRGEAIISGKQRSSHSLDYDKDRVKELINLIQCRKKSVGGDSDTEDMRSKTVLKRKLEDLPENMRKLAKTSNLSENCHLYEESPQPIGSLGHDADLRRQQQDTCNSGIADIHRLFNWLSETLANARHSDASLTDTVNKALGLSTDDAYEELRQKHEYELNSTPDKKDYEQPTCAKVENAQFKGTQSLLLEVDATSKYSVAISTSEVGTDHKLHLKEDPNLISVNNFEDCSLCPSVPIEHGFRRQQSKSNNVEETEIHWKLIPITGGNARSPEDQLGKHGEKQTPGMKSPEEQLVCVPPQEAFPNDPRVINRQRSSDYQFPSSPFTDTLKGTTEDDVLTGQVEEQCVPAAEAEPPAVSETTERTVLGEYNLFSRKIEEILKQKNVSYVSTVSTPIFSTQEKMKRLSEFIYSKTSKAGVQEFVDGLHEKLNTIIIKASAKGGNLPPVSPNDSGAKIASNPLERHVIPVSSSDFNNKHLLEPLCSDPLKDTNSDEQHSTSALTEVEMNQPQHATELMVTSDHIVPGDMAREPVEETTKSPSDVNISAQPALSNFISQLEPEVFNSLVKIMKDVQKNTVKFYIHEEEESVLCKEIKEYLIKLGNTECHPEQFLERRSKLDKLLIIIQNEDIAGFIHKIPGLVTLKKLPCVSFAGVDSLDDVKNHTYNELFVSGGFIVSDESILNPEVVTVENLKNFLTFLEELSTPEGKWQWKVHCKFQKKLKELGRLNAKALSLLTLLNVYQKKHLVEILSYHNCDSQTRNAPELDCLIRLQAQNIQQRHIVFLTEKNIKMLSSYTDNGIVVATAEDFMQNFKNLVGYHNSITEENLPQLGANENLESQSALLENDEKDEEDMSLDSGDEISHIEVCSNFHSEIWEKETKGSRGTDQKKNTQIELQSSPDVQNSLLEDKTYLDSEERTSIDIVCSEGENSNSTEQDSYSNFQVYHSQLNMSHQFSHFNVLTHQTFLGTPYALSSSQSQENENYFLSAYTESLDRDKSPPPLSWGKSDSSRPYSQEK

| Molecule | strength of the FAM208A signal in the Vpx pull-out (HA-tagged FAM208A) | reactivation of latent proviruses (Jurkat LTR-gfp cells) |
| --- | --- | --- |
| CC(C)C[C@H](NC(=O)[C@H](CCc1ccccc1)NC(=O)CN1CCOCC1)C(=O)N[C@@H](Cc1ccccc1)C(=O)N[C@@H](CC(C)C)C(=O)[C@@]1(C)CO1 [PR171] | increased | – |
| TNFα | – | reactivation |
